According to paper PMC3781598 (Pharmaceutical research, 2013):

Columns and labels:
[1] = molecular target: T1, human CYP2A6 (Homo sapiens, UniProt P11509); assay: Coumarin metabolism assay
T1 sequence (P11509 with tags, fused parts or gaps limits assumed): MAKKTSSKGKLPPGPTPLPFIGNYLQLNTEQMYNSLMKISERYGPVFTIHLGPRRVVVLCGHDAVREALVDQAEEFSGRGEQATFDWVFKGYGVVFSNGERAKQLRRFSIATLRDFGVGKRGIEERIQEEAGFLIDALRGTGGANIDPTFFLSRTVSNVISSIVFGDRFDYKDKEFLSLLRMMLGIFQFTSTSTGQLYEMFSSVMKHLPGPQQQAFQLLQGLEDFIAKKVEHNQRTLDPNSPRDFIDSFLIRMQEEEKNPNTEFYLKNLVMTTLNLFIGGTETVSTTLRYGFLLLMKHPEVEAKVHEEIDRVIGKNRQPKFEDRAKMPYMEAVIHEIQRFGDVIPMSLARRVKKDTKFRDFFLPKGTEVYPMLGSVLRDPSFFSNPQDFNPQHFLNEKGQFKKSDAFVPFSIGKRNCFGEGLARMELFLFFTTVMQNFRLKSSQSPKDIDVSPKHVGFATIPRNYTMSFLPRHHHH

[2] = molecular target: T2, human CYP2A13 (Homo sapiens, UniProt Q16696); assay: Coumarin metabolism assay
T2 sequence (Q16696 with tags, fused parts or gaps limits assumed): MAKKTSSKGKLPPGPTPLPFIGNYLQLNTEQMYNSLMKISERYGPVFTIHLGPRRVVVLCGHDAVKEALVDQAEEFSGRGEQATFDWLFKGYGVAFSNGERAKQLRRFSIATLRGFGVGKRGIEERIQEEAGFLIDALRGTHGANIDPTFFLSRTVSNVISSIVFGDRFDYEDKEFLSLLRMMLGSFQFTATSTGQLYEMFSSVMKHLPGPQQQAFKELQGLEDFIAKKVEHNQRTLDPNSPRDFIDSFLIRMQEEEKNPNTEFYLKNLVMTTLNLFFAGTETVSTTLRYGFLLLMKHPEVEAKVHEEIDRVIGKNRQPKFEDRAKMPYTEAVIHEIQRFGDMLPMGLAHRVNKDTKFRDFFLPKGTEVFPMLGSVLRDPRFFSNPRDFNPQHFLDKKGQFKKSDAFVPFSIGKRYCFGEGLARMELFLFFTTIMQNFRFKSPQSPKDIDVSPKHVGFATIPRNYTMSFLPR

[3] = test system: human CYP2A13; assay: Coumarin metabolism assay; details: ratio of the CYP2A6 value to the CYP2A13 value
[4] = test system: CYP2A6 / CYP2A13; assay: Coumarin metabolism assay; details: human, pH 7.4, probe coumarin (7-hydroxylation), Selectivity Ki (2A6)/ Ki (2A13), ratio of the CYP2A6 value to the CYP2A13 value
[5] = test system: human CYP2A13; assay: Spectral ligand binding assay; details: ratio of the CYP2A6 value to the CYP2A13 value
[6] = test system: CYP2A6 / CYP2A13; assay: Spectral ligand binding assay; parameters: species or system human; details: human, Selectivity Kd (2A6)/ Kd (2A13), ratio of the CYP2A6 value to the CYP2A13 value
[7] = molecular target: T3, human CYP2A13 (Homo sapiens, UniProt Q16696); assay: Spectral ligand binding assay
T3 sequence (Q16696 25-494): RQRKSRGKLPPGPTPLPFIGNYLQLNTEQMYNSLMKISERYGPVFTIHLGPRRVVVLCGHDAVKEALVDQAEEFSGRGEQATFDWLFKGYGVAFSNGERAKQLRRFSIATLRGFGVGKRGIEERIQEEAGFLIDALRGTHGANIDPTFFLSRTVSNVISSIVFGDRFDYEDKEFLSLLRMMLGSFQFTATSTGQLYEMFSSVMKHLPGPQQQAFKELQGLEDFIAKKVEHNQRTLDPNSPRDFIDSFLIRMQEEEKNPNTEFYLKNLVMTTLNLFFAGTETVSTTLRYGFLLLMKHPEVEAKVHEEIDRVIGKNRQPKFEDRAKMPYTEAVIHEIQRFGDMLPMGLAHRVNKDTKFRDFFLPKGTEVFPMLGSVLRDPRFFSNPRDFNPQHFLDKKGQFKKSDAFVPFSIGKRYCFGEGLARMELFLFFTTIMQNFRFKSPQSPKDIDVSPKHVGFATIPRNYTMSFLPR

[8] = test system: NNK-induced tumors; details: rats; reduced from 70% without inhibitor; cited from earlier work

| SMILES | Ki [1] [µM] | Mode of inhibition 2A6 ([1]; coumarin substrate) | α (mixed inhibition) 2A6 ([1]; coumarin substrate, mixed model inhibition) | Ki [2] [µM] | Selectivity Ki (2A6)/ Ki (2A13) [3] | selectivity ratio at 10 min [4] | Selectivity Kd (2A6)/ Kd (2A13) [5] | selectivity ratio [6] | Kd ([7]; Kd 2A13, spectral titration, ≥ = minimal Kd value) [µM] | Spectral shift type 2A13 ([7]; UV/Vis difference spectra) | NNK-induced tumors [8] [%] |
| --- | --- | --- | --- | --- | --- | --- | --- | --- | --- | --- | --- |
| Clc1ccccc1CN1CCSCC1 [Compound 18, 4-(2-chlorobenzyl)thiomorpholine] | 483 | mixed inhibition | 3.1 | 59 | 8.2 | 8 | 18.6 | 18 | 8.3 ± 4.1 | I | – |
| S=C=NCCc1ccccc1 [PEITC, phenethyl isothiocyanate] | – | – | – | – | – | – | – | – | – | – | 5 |
